The source of these data is patent US8980587B2, “Process for producing reveromycin A or a synthetic intermediate thereof, process for producing compounds containing a spiroketal ring and novel antineoplastics, fungicides and therapeutic agents for bone disorders” (RIKEN, priority 2010, dated 2015).

Converted amounts (≈) assume the structure as drawn. Where two headings read alike, the source gives them in different places.

For assay [1], the system named is tsFT210 cells (mouse breast cancer cells CDC2 temperature sensitive strain). The experiment in a line: Growth-inhibiting activity against animal cells (WST-8), tsFT210. The format is cell-based. As to the method:
HL-60 cells (human acute promyelocytic leukemia cell line) and K562 cells (human chronic myeloid leukemia cell line) were maintained in a culture medium in which RPMI1640 medium (manufactured by Invitrogen) was added with 10% fetal bovine serum (manufactured by Nichirei), 0.5% penicillin/streptomycin solution (manufactured by Invitrogen) at 37° C. under a humidified culture of 5% CO2. tsFT210 cells (mouse breast cancer cells CDC2 temperature sensitive strain) were maintained in a culture medium in which RPMI1640 medium (manufactured by Invitrogen) was added with 5% calf serum (manufactured by Hyclone) and 0.5% penicillin/streptomycin solution at 32° C. under a humidified culture of 5% CO2.
HL-60 cells and K562 cells were seeded in a 96-well plate (manufactured by IWAKI) so as to be 1.5×10^4 cells/well/100 μl. tsFT210 cells were seeded in a 96-well plate so as to be 1.6×10^4 cell/well/100 μl. Each of the agents in Table 5 was added at 0.5% (v/v). HL-60 cells and K562 cells were maintained at 37° C. under a humidified culture of 5% CO2 and tsFT210 cells were maintain at 32° C. under a humidified culture of 5% CO2. Forty eight hours after addition of the agent, 10 μl of a reagent SF solution for counting live cells (WST-8 reagent, manufactured by Nakarai tesque) was added to each well. HL-60 cells and K562 cells were maintained at 37° C. under a humidified culture of 5% CO2 for 30 minutes and tsFT210 cells were maintain at 32° C. under a humidified culture of 5% CO2 for one hour. After the reaction, absorbance at 450 nm was measured using a microplate reader (manufactured by PerkinElmer) and a cell proliferation rate was determined from the measurement value.
In general terms: Tetrazolium dyes change colour on reduction, which living cells bring about.

Assay [2] relates to Budding yeast (MLC30M strain). The experiment in a line: Growth-inhibiting activity against yeast. The format is cell-based. The following applies: for IC50: Saccharomyces cerevisiae, read-out: Yeast IC50. As to the method: Budding yeast (MLC30M strain) was precultured in a culture medium of 2% Polypeptone, 1% yeast extract, 2% glucose, 0.02% adenine, and 0.001% sodium dodecyl sulfate (SDS) at 30° C. Absorbance at 600 nm was measured, and yeast solution was prepared such that the absorbance is 0.05 and seeded 100 μl each in a 96-well plate. Each of the agents in Table 5 was added at 0.5% (v/v) and maintained at 30° C. Eighteen hours after addition of the agent, absorbance at 600 nm was measured using a microplate reader (manufactured by PerkinElmer) and a proliferation rate was determined from the measurement value.

Assay [3] addresses T1, Isoleucyl tRNA synthetase (Homo sapiens, UniProt P41252).
T1 construct: 10 μg protein (HT1080 cell lysate); endogenous in cells; host or cells: HT1080 cell lysate
T1 sequence (P41252 1-1262): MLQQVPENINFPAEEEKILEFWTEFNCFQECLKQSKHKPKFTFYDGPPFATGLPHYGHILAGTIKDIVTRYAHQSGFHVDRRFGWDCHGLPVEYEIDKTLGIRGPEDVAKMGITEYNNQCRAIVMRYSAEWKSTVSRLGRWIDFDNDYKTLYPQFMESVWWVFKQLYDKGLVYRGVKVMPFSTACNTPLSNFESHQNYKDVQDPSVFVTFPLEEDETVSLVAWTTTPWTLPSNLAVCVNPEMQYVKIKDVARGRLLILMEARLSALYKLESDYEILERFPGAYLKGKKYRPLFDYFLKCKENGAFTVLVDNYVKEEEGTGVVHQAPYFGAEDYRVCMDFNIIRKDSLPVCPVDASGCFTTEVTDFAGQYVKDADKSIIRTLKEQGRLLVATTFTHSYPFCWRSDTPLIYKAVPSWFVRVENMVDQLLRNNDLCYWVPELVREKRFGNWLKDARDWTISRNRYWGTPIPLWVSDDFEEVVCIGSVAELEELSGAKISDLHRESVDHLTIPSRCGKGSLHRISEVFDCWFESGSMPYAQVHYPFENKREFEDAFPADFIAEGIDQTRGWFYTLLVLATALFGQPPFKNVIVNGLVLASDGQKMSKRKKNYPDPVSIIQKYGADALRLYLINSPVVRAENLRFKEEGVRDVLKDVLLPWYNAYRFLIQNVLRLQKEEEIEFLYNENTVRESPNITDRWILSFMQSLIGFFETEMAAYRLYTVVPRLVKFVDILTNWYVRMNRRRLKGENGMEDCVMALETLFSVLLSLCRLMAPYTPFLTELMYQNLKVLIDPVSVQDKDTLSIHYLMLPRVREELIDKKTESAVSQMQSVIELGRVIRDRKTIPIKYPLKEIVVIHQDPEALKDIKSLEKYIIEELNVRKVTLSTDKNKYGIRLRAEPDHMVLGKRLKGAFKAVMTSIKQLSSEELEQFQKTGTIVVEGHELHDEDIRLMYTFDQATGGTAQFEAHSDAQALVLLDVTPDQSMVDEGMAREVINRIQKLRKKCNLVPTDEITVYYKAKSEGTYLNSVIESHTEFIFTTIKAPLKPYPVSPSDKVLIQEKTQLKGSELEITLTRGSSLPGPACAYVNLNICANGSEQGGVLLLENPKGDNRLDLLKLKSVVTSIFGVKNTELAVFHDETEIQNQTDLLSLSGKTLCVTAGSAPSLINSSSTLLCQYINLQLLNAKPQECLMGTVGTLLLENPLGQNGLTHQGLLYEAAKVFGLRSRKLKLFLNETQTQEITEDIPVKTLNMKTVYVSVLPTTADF
The experiment in a line: Inhibitory activity against isoleucyl tRNA synthetase. The following applies: for IC50: HT1080 cell lysate, [3H]isoleucine, 25° C., 20 minutes, read-out: IRS IC50 (converted). The format is biochemical. As to the method:
To a solution for enzymatic reaction [20 mM imidazole, pH 7.5, 75 mM MgCl2, 0.5 mM DTT, 1 U/ml tRNA (E. coli origin, manufactured by Sigma), 3 mM ATP, 1 μM isoleucine, 10 μCi/ml [^3H]isoleucine (manufactured by GE Healthcare), 10 μg protein (HT1080 cell lysate)], each of the agents in Table 5 was added at 1% (v/v) so as to attain a total amount of 100 μl and a reaction was carried out at 25° C. for 20 minutes. One mg/ml BSA solution (400 μl) and 10% TCA solution (500 μl) were then added thereto to terminate the reaction and left to stand at 4° C. overnight. A precipitate obtained by a centrifugal operation was transferred onto GF-C filter (manufactured by Whatman), washed three times with 5% TCA solution, followed by drying the filter. Two milliliters of aquasol-2 (manufactured by PerkinElmer) and the filter were placed in a vial and vigorously stirred, and then the amount of [^3H]isoleucine was measured by a liquid scintillation counter (manufactured by Beckman) to determine a rate of enzyme activity.

[4] abbreviates: tsFT210, 48 h, read-out: tsFT210 IC50.

Usually IC50 stands for the concentration needed to halve the response being measured. Regarding `CCCC[C@@]1(OC(=O)CCC(=O)O)CC[C@]2(CC[C@H](C)[C@@H](C/C=C(C)/C=C/[C@H](O)[C@@H](C)/C=C/C(=O)O)O2)O[C@H]1/C=C/C(C)=C/C(=O)O` [RM-A, Reveromycin A], the 50% inhibitory concentration (IC50) in assay [1] (setting [4]) was 8.5 µg/mL (≈ 12.9 µM); in assay [2] (18 h) it was 4.3 µg/mL (≈ 6.51 µM); in assay [3] it was 9.38 nM.

With `CCCCCC[C@@]1(OC(=O)CCC(=O)O)CC[C@]2(CC[C@H](C)[C@@H](C/C=C(C)/C=C/[C@H](O)[C@@H](C)/C=C/C(=O)O)O2)O[C@H]1/C=C/C(C)=C/C(=O)O` [RM-E], the IC50 was 7 µg/mL (≈ 10.2 µM) in assay [1] (setting [4]), 2.3 µg/mL (≈ 3.34 µM) in assay [2] (18 h) and 4.06 nM in assay [3].

On to `CCCC[C@H]1CC[C@]2(CC[C@H](C)[C@@H](C/C=C(C)/C=C/[C@H](O)[C@@H](C)/C=C/C(=O)OCC)O2)O[C@H]1/C=C/C(C)=C/C(=O)O` [RM-T ethyl-ester], for which the IC50 in assay [1] (tsFT210 cells, 32° C., 48 hours after addition of the agent, WST-8, read-out: tsFT210 IC50) is 11.4 µg/mL (≈ 19.9 µM); in assay [2] (MLC30M strain, 18 hours, absorbance at 600 nm), > 50 µg/mL; in assay [3] it was 349 nM.

Consider `CCCCC1CCC2(CCC(C)C(C/C=C(C)/C=C/C(O)C(C)/C=C/C(=O)O)O2)OC1/C=C/C(C)=C/C(=O)O` (centres unmarked) [RM-T], for which the half-inhibitory concentration (IC50) in assay [1] (setting [4]) is 0.4 µg/mL (≈ 0.734 µM); in assay [2] (18 h) it was 0.05 µg/mL (≈ 0.0918 µM); in assay [3] it was 0.367 nM. In addition, the “growth-inhibiting activity against yeast (in words)” value in assay [2] (summary of Table 5) is reported as “exhibited growth-inhibiting activity against yeast”. In assay [3] (as compared with RM-A), the “enzyme inhibiting activity against the target molecule IRS (in words)” value was “higher”.
